Experimental data as given in ChEMBL document CHEMBL6182926, “Design, Synthesis, and Biological Activity Evaluation of Deuterated Diphenyl Azole Alcohol-Based CYP51 Inhibitors” (J Med Chem, 2025).
In brackets after ≈: the same amount, converted by molar mass. Activity calls are given as the source filed them. The rule behind the calls is not given here.

Assays:
[1] = tested on: Candida albicans; experiment: Antifungal activity against Candida albicans CPCC 400616 assessed as inhibition of visible growth; type: functional
[2] = Metabolic stability in human liver microsomes assessed as compound remaining measured up to 60 mins by LC-MS/MS analysis; type: ADME, Microsome; details: liver microsomes, read-out: Activity
[3] = tested on: Candida parapsilosis; experiment: Antifungal activity against Candida parapsilosis GIM 2.190 assessed as inhibition of visible growth; type: functional; details: Lodderomyces parapsilosis
[4] = tested on: Pichia kudriavzevii; experiment: Antifungal activity against Candida krusei AS 2.1045 assessed as inhibition of visible growth; type: functional
[5] = Metabolic stability in human liver microsomes assessed as half life by LC-MS/MS analysis; type: ADME, Microsome; details: liver microsomes
[6] = tested on: Cryptococcus neoformans; experiment: Antifungal activity against Cryptococcus neoformans CGMCC 2.3161 assessed as inhibition of visible growth; type: functional
[7] = tested on: Nakaseomyces glabratus; experiment: Antifungal activity against Clinical isolate Candida glabrata assessed as inhibition of visible growth; type: functional
[8] = Cytotoxicity against human HUVEC cells measured after 72 hrs by MTT assay; type: toxicity, cell-based
[9] = tested on: Candida albicans; experiment: Antifungal activity against Candida albicans SC 5314 assessed as inhibition of visible growth; type: functional
[10] = tested on: Aspergillus fumigatus; experiment: Antifungal activity against Aspergillus fumigatus CGMCC 3.7795 assessed as inhibition of visible growth; type: functional
[11] = tested on: Candida tropicalis; experiment: Antifungal activity against Candida tropicalis CGMCC 2.3739 assessed as inhibition of visible growth; type: functional
[12] = tested on: Mus musculus; experiment: In vivo antifungal activity against Candida albicans SC5314 infected in ICR mouse model assessed as mouse survival at 1 mg/kg, oral gavage measured for 21 days post infection; type: functional, organism-based; details: time 21.0 day, tested as the 2H-labelled form
[13] = tested on: Candida albicans; experiment: In vivo anti-resistant activity against fluconazole-resistant Candida albicans strain 17# infected in cyclophosphamide-immunosuppressed ICR mouse model assessed as reduction in fungal burden in kidney at 10 mg/kg, oral gavage for 5 days post infection; type: functional, organism-based; details: time 5.0 day, tested as the 2H-labelled form
[14] = tested on: Cell membrane; experiment: Induction of loss of cell membrane integrity in Candida albicans SC5314 assessed as irregular cell morphology at 16 microg/ml measured after 48 hrs incubation by transmission electron microscopy; type: subcellular; details: dose 16.0 µg/ml
[15] = tested on: Candida albicans; experiment: In vivo anti-resistant activity against fluconazole-resistant Candida albicans strain 17# infected in cyclophosphamide-immunosuppressed ICR mouse model assessed as reduction in fungal burden in kidney at 5 mg/kg, oral gavage for 5 days post infection; type: functional, organism-based; details: time 5.0 day, tested as the 2H-labelled form
[16] = tested on: Candida albicans; experiment: In vivo antifungal activity against Candida albicans SC5314 infected in cyclophosphamide-immunosuppressed ICR mouse model assessed as reduction in fungal burden in kidney at 1 mg/kg, oral gavage for 5 days post infection; type: functional, organism-based; details: time 5.0 day, tested as the 2H-labelled form
[17] = tested on: Cell membrane; experiment: Induction of loss of cell membrane integrity in Candida albicans SC5314 assessed as leakage of intracellular components into the extracellular environment at 16 microg/ml measured after 48 hrs incubation by transmission electron microscopy; type: subcellular; details: dose 16.0 µg/ml
[18] = tested on: Candida albicans; experiment: In vivo antifungal activity against Candida albicans SC5314 infected in cyclophosphamide-immunosuppressed ICR mouse model assessed as reduction in fungal burden in kidney at 5 mg/kg, oral gavage for 5 days post infection; type: functional, organism-based; details: time 5.0 day, tested as the 2H-labelled form
[19] = tested on: Candida albicans; experiment: Antifungal activity against Candida albicans CPCC 400616 assessed as suppression of hyphal formation (inhibition of yeast to hypha transition) at 2 microg/ml measured after 4 hrs by inverted microscopy; type: functional, organism-based; details: dose 2.0 µg/ml, tested as the 2H-labelled form
[20] = tested on: Cryptococcus neoformans; experiment: Antifungal activity against Cryptococcus neoformans CGMCC 2.3161 assessed as reduction in Eburicol at 8 ug/ml measured after 18 hrs incubation by gas chromatography-mass spectrometry (GCMS) analysis; type: functional; set-up: scale not given: the % may be the effect or the level left; details: dose 8 µg/ml
[21] = tested on: Nakaseomyces glabratus; experiment: Fungicidal activity against Clinical isolate Candida glabrata assessed as concentration of colonies (< 5) measured after 48 hrs incubation; type: functional
[22] = tested on: Candida albicans; experiment: Antifungal activity against Candida albicans SC5314 assessed as reduction in other sterol at 4 ug/ml measured after 18 hrs incubation by gas chromatography-mass spectrometry (GCMS) analysis (reference value: 2.59%); type: functional; set-up: scale not given: the % may be the effect or the level left; details: dose 4 µg/ml
[23] = tested on: Candida albicans; experiment: Antifungal activity against Candida albicans SC5314 assessed as reduction in 14alpha-methylsterols at 4 ug/ml measured after 18 hrs incubation by gas chromatography-mass spectrometry (GCMS) analysis (reference value: 0.69%); type: functional; set-up: scale not given: the % may be the effect or the level left; details: dose 4 µg/ml
[24] = tested on: Candida albicans; experiment: Antifungal activity against Candida albicans SC5314 assessed as reduction in ergosterol at 4 ug/ml measured after 18 hrs incubation by gas chromatography-mass spectrometry (GCMS) analysis (reference value: 96.72%); type: functional; set-up: scale not given: the % may be the effect or the level left; details: dose 4 µg/ml
[25] = tested on: Cryptococcus neoformans; experiment: Fungicidal activity against Cryptococcus neoformans CGMCC 2.3161 assessed as concentration of colonies (< 5) measured after 48 hrs incubation; type: functional
[26] = tested on: Cryptococcus neoformans; experiment: Antifungal activity against Cryptococcus neoformans CGMCC 2.3161 assessed as reduction in Obtusifoliol at 8 ug/ml measured after 18 hrs incubation by gas chromatography-mass spectrometry (GCMS) analysis; type: functional; set-up: scale not given: the % may be the effect or the level left; details: dose 8 µg/ml
[27] = tested on: Candida albicans; experiment: Antifungal activity against Candida albicans SC5314 assessed as reduction in Obtusifoliol at 4 ug/ml measured after 18 hrs incubation by gas chromatography-mass spectrometry (GCMS) analysis; type: functional; set-up: scale not given: the % may be the effect or the level left; details: dose 4 µg/ml
[28] = tested on: Candida albicans; experiment: Antifungal activity against Candida albicans SC5314 assessed as reduction in Lanosterol at 4 ug/ml measured after 18 hrs incubation by gas chromatography-mass spectrometry (GCMS) analysis; type: functional; set-up: scale not given: the % may be the effect or the level left; details: dose 4 µg/ml
[29] = tested on: Candida albicans; experiment: In vivo anti-resistant activity against fluconazole-resistant Candida albicans strain 17# infected in cyclophosphamide-immunosuppressed ICR mouse model assessed as reduction in fungal burden in kidney at 1 to 5 mg/kg, oral gavage for 5 days post infection; type: functional, organism-based; details: dose 1-5 mg/kg, time 5.0 day
[30] = tested on: Nakaseomyces glabratus; experiment: Inhibition of biofilm formation in clinical isolate Candida glabrata assessed as inhibition of metabolic activity of biofilm measured after 24 hrs by XTT assay; type: functional
[31] = tested on: Cryptococcus neoformans; experiment: Antifungal activity against Cryptococcus neoformans CGMCC 2.3161 assessed as reduction in other sterol at 8 ug/ml measured after 18 hrs incubation by gas chromatography-mass spectrometry (GCMS) analysis (reference value: 2.20%); type: functional; set-up: scale not given: the % may be the effect or the level left; details: dose 8 µg/ml
[32] = tested on: Cryptococcus neoformans; experiment: Inhibition of biofilm formation in Cryptococcus neoformans CGMCC 2.3161 assessed as inhibition of metabolic activity of biofilm measured after 24 hrs by XTT assay; type: functional
[33] = Cytotoxicity against human SH-SY5Y cells measured after 72 hrs by MTT assay; type: toxicity, cell-based
[34] = tested on: Pichia kudriavzevii; experiment: Fungicidal activity against Candida krusei AS 2.1045 assessed as concentration of colonies (< 5) measured after 48 hrs incubation; type: functional
[35] = tested on: Cryptococcus neoformans; experiment: Antifungal activity against Cryptococcus neoformans CGMCC 2.3161 assessed as reduction in ergosterol at 8 ug/ml measured after 18 hrs incubation by gas chromatography-mass spectrometry (GCMS) analysis (reference value: 94.48%); type: functional; set-up: scale not given: the % may be the effect or the level left; details: dose 8 µg/ml
[36] = tested on: Cell membrane; experiment: Antifungal activity against Candida albicans SC5314 assessed as reduction in Eburicol at 4 ug/ml measured after 18 hrs incubation by gas chromatography-mass spectrometry (GCMS) analysis; type: subcellular; set-up: scale not given: the % may be the effect or the level left; details: dose 4.0 µg/ml

CN(Cc1ccc(N2CCN(Cc3ccc(F)cc3Br)CC2)cc1)CC(O)(Cn1cncn1)c1ccc(F)cc1F (stereo unspecified)
MIC80 [1]: 0.006 µg/mL (≈ 0.00953 µM)
remaining at 1 h [2]: 0.936%
MIC80 [3]: 0.006 µg/mL (≈ 0.00953 µM)
MIC80 [4]: 0.05 µg/mL (≈ 0.0794 µM)
half-life [5]: 2.89 min
MIC80 [6]: 0.012 µg/mL (≈ 0.0191 µM)
MIC80 [7]: 0.05 µg/mL (≈ 0.0794 µM)
IC50 at 72 h [8]: 21 µM
MIC80 [9]: 0.006 µg/mL (≈ 0.00953 µM)
MIC80 [10]: 0.05 µg/mL (≈ 0.0794 µM)
MIC80 [11]: 0.006 µg/mL (≈ 0.00953 µM)

C[C@@H](N(C)Cc1ccc(-c2ccc(OC(F)(F)F)cc2)cc1)[C@](O)(Cn1cncn1)c1ccc(F)cc1F
Activity [12]: inactive
Activity [13]: Active; Compound Showed Far Superior Effect Than Fluconazole
Activity ([14]; tested as the 2H-labelled form): Active
Activity [15]: Active
Activity [16]: Active; Low Dose Antifungal Activity Weaker Than Fluconazole (Positive Control)
Activity [17]: Active
Activity [18]: Active
inhibition [19]: Active

OC(Cn1cncn1)(Cn1cncn1)c1ccc(F)cc1F [FLUCONAZOLE]
Activity [20]: 5.92%
MFC [21]: > 128 µg/mL
Activity [22]: 13.1%
Activity [23]: 8.46%
Activity [24]: 3.81%
MIC80 [1]: 0.5 µg/mL (≈ 1.63 µM)
MFC [25]: > 128 µg/mL
MIC80 [3]: 1 µg/mL (≈ 3.27 µM)
Activity [14]: Active
Activity [26]: 3.85%
Activity [27]: 18.55%
MIC80 [4]: 8 µg/mL (≈ 26.1 µM)
Activity [28]: 18.35%
Activity [29]: inactive
MIC50 [30]: 0.12 µg/mL (≈ 0.392 µM)
Activity [31]: 3.51%
MIC50 [32]: 32 µg/mL (≈ 104 µM)
MIC80 [6]: 16 µg/mL (≈ 52.2 µM)
MIC80 [7]: 32 µg/mL (≈ 104 µM)
IC50 at 72 h [8]: > 40 µM
MIC80 [9]: 0.25 µg/mL (≈ 0.816 µM)
IC50 at 72 h [33]: > 100 µM
MIC80 [10]: > 64 µg/mL
MFC [34]: > 128 µg/mL
Activity [35]: 86.73%
Activity [36]: 49.5%
MIC80 [11]: 0.25 µg/mL (≈ 0.816 µM)

[2H]C([2H])([2H])N(Cc1ccc(-c2ccc(Cl)c(F)c2)cc1)[C@H](C)[C@](O)(Cn1cncn1)c1ccc(F)cc1F
MIC80 [1]: 0.006 µg/mL (≈ 0.0119 µM)
remaining at 1 h [2]: 4.91%
MIC80 [3]: 0.006 µg/mL (≈ 0.0119 µM)
MIC80 [4]: 0.006 µg/mL (≈ 0.0119 µM)
half-life [5]: 14.1 min
MIC80 [6]: 0.006 µg/mL (≈ 0.0119 µM)
MIC80 [7]: 0.012 µg/mL (≈ 0.0238 µM)
MIC80 [9]: 0.006 µg/mL (≈ 0.0119 µM)
MIC80 [10]: 0.006 µg/mL (≈ 0.0119 µM)
MIC80 [11]: 0.006 µg/mL (≈ 0.0119 µM)
